Source: US7214507B2, “Plant enzymes for bioconversion” (Plant Research International B.V., priority 2001, dated 2007)
“Also recorded” adds a separate entry of the source.

How the values were obtained:
[1] = test system: (+)-germacrene A hydroxylase; experiment: Effect of the used solvent for (+)-γ-gurjunene on enzyme activity; assay type: biochemical, Cichorium intybus L.; details: peak height of γ-gurjunene alcohol relative to the internal standard (5 nmol cis-nerolidol); 5 μL of 10 mM γ-gurjunene in the solvent
Experimental: Before experiments as described in this example were started, it was tested which organic solvent could be best used to dissolve the substrate. […] Karp et al., 1990).

[2] = test system: (+)-costunolide reductase activity; experiment: Formation of 11(S),13-dihydrocostunolide from (+)-costunolide by 20,000 g chicory root supernatant; assay type: biochemical, Cichorium intybus L.; details: for Reduction of the C11–C13 exocyclic double bond (in words): 20 μM substrate, NADPH
Experimental: (§1) Incubations were also done with boiled desalted supernatant and in the absence of NADPH. The experiments were repeated with elema-1,3,11(13)-trien-12-oic acid (FIG. 2, 9) and a mixture of α- and γ-costic acid (14) that might serve as substrate analogues for the germacrene acid (4). After 1 h of incubation at 30° C., the reactions were stored in the freezer.
(§2) The organic phase was filtered through a glass-wool plugged (dimethyl chlorosilane-treated glasswool; Chrompack) Pasteur pipette that contained 0.45 g of silica and a little anhydrous MgSO4. […] Samples of 2 μL were analysed by GC-MS using an injection port temperature of 320° C. to provoke Cope rearrangement of (+)-costunolide (5).
(§3) Incubations as described for the germacrene acid were also done with (+)-costunolide (30 μM) to test whether any further enzymatic conversion of this compound would occur during the incubation of germacrene acid. Parthenolide (20 μM) (FIG. 9, 17) was incubated as well since it might be an intermediate in the formation of guaianolides. […] The effect of established cytochrome P450 inhibitors and CO on the conversion of (+)-costunolide was studied, just as the effect of various pyridine nucleotide cofactors and an argon atmosphere.

(+)-costunolide synthase = target: T1, (+)-costunolide synthase (Cichorium intybus, UniProt G3GBK0); experiment: (+)-Costunolide synthase activity, 20,000 g chicory root supernatant with germacrene acid; assay type: biochemical, Cichorium intybus L.; details: for Conversion of substrate analogues by the (+)-costunolide synthase (in words): 20,000 g supernatant, NADPH; for Percentage Enzyme Activity ± SD, (+)-costunolide synthase: addition at 1 mM, 100% = sum of dehydrosaussurea lactone, saussurea lactone and leucodin peaks with 1 mM NADPH
T1 construct: A cell free extract of chicory roots was prepared from the frozen material; from tissue; host or cells: chicory roots, desalted 20,000 g supernatant
T1 sequence (G3GBK0 1-494): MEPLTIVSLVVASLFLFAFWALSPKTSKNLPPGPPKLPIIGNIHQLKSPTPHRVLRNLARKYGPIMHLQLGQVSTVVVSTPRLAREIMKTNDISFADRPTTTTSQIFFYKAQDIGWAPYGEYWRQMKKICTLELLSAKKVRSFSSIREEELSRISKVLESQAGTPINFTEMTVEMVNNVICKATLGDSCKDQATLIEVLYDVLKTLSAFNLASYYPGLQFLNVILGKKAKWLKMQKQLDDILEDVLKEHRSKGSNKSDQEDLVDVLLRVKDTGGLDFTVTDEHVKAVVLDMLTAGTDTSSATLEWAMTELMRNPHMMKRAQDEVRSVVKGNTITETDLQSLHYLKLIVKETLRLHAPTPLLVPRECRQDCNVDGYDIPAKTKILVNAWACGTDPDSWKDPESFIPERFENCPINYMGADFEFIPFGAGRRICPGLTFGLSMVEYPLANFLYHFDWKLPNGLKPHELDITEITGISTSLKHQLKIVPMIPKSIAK
Experimental: A cell free extract of chicory roots was prepared from the frozen material in the same way as described for isolation of the germacrene A hydroxylase (Example 1), but MgCl2 was not added to the extraction buffer since the accompanying (+)-germacrene A synthase activity was not essential for the detection of (+)-costunolide synthase activity. […] DTT was omitted from the assay buffer, because SH-groups present in DTT might undergo an “Michael-type addition” to the C11–C13 exocyclic double bond of (+)-costunolide Kupchan et al., 1970). […] Incubations were also done with boiled desalted supernatant and in the absence of NADPH. The experiments were repeated with elema-1,3,11(13)-trien-12-oic acid (FIG. 2, 9) and a mixture of α- and γ-costic acid (14) that might serve as substrate analogues for the germacrene acid (4). After 1 h of incubation at 30° C., the reactions were stored in the freezer.
as §2, with “(5). Mass spectra were recorded at 70 eV scanning from 35 to 300 atomic mass units; the GC oven temperature was programmed as described before (de Kraker et al., 1998).” for “(5).”
To determine whether the formation of (+)-costunolide (5) from germacrene acid (4) was catalysed by a cytochrome P450-enzyme, the effect of various established cytochrome P450-inhibitors (cytochrome C, metyrapone, clotrimazole, micozanole, and amino-benzotriazole) on this reaction were tested, as well as the effect of CO or an argon atmosphere. The cofactor dependence was also investigated, i.e. NAD(P)^+ or NADH was added instead of NADPH. Experiments were carried out in a similar manner as described for the germacrene A hydroxylase in Example I using a 20,000 g supernatant and 5 μL of 0.2 mM cis-nerolidol as internal standard. Blue-light reversal of CO-inhibition was investigated with gas-mixtures of 10% O2 plus 90% N2 (blank) and 10% O2 plus 90% CO.

leucodin biosynthesis = experiment: Formation of leucodin from (+)-costunolide by 20,000 g chicory root supernatant; assay type: biochemical, Cichorium intybus L.
Experimental: as §1, §2, §3

[3] = test system: (+)-germacrene A hydroxylase; experiment: Conversion of sesquiterpenes by a microsomal pellet of chicory in the presence of NADPH; details: for Conversion by the (+)-germacrene A hydroxylase containing microsomal pellet (in words): NADPH, microsomal pellet from chicory roots
Experimental: During the whole procedure the plant material was kept on ice as much as possible. After 5 times several seconds of mixing, the slurry was transferred to the cheesecloth with an additional 10 ml of extraction buffer. The cheesecloth was squeezed out and the filtrate was centrifuged (Sigma 2K15) for 20 minutes at 20,000 g and 4° C. The supernatant was poured over a funnel filled with glass wool. […] The resulting microsomal pellets (about 6) were stored under argon at −80° C.
Before incubation, 10 pellets were pottered in 30 mL of assay buffer consisting of 25 mM Tris pH 7.5), 2 mM DTT, 1 mM ascorbic acid, 5 μM FAD, 5 μM FMN and 10% (v/v) glycerol. The enzyme suspension was divided in 1 mL aliquots and incubated with 5 μL substrate solution in the presence of a 1 mM NADPH-regenerating system that consisted of 1 mM NADPH, 5 mM glucose-6-phosphate, and 1.2 IU glucose-6-phosphate dehydrogenase (all from Sigma). The initial concentration of substrate in each assay was 45 μM and all were done in duplicate. […] After 60 minutes the incubations were stopped by storing them at −20° C. in a freezer.
The enzyme assays were extracted 2 times with 1 mL 20% (v/v) ether in pentane, after the addition of 5 μM cis-nerolidol (Fluka). The organic phase was filtered through a glasswool-plugged (dimethyl chlorosilane-treated, Chrompack) Pasteur pipette that contained 0.4 gram of silica and a little anhydrous MgSO4. The pipette was rinsed with 1.5 mL ether and the extract was concentrated to approximately 50 μL under a stream of nitrogen.

[4] = test system: NAD(P)+-dependent dehydrogenase(s); experiment: Oxidation of alcohols by 150,000 g supernatant of chicory roots with NAD(P)+; assay type: biochemical, Cichorium intybus L.; details: 100 μM substrate
Experimental: It was assumed that this β-nootkatol is an intermediate in the formation of nootkatone. For this reason incubations of 100 μM β-nootkatol were performed at pH 10 with NAD(P)^+and a 150,000 g supernatant of chicory roots, such as described for the conversion of (−)-elema-1,3,11(13)-12-ol and germacra-1(10),4,11(13)-trien-12-ol by NADP^+-dependent dehydrogenases by De Kraker et al. (2001). During incubation the added β-nootkatol was converted for more than 60% into nootkatone in the presence of either 1 mM NADP^+ or 1 mM NAD^+. In the absence of these cofactors conversion still amounted to 25%, whereas the boiled enzyme extract gave no conversion of β-nootkatol. At pH 7.5, enzyme activity was slightlylower, whereas a 150,000 g pellet, as expected, yielded 3-fold less dehydrogenase activity than the corresponding supernatant.
To get some more information about the substrate specificity of the dehydrogenase(s) present in chicory roots, incubations with the 150,000 g supernatant were also performed with 100 μM trans,trans-farnesol as substrate (FIG. 19) in the presence of either NAD^+ or NADP^+. Trans,trans-farnesol was converted up to 60% into a mixture of trans,trans-farnesal and cis,trans-farnesal, and small amounts of farnesoic acid were observed as well.

[5] = inhibitor 10 μM, DMSO (1%) control = 100%
[6] = atmosphere: 80% CO + 20% O2 or argon, air = 100%
[7] = inhibitor 100 μM, control = 100%
[8] = pyridine nucleotide cofactor 1 mM, substrate (+)-costunolide

CCCCC [pentane]
Enzyme activity ± SD [1]: 0.47 ± 0.07

Clc1ccccc1C(c1ccccc1)(c1ccccc1)n1ccnc1 [clotrimazole]
Percentage Enzyme Activity ± SD, Dihydrocostunolide (20) [2, 5]: 119 ± 9%
Reduction of the amount of measurable enzymatic products of germacrene acid ((+)-costunolide synthase; inhibitor 100 μM): 97%
Percentage Enzyme Activity ± SD, Leucodin (22) (leucodin biosynthesis; [5]): 0 ± 0%

C=C(C(=O)O)[C@@H]1CC[C@@]2(C)CCCC(C)=C2C1 [γ-costic acid]
Conversion of substrate analogues by the (+)-costunolide synthase (in words) ((+)-costunolide synthase): not converted either

C=C(C)[C@@H]1CC[C@@]2(C)CCCC(=C)[C@@H]2C1 [(+)-β-selinene]
Share of the added substrate that was hydroxylated ([3]; 50 nmol added): Approximately 30%

C=C(C(=O)O)[C@@H]1CC[C@@]2(C)CCC=C(C)[C@@H]2C1 [α-costic acid]
Conversion of substrate analogues by the (+)-costunolide synthase (in words) ((+)-costunolide synthase): not capable of converting

[C-]#[O+] [CO]
Percentage Enzyme Activity ± SD, Dihydrocostunolide (20) [2, 6]: 140 ± 4%
Effect on the produced sum of (+)-costunolide, 11(S),13-dihydrocostunolide and leucodin (in words) ((+)-costunolide synthase; 90% CO + 10% O2, blue light 450 nm): inhibitory effect
Formation of leucodin from (+)-costunolide, effect of inhibitors (in words) (leucodin biosynthesis): strongly inhibited
Percentage Enzyme Activity ± SD, Leucodin (22) (leucodin biosynthesis; [6]): 8 ± 1%

CC(C)(C(=O)c1cccnc1)c1cccnc1 [metyrapone]
Percentage Enzyme Activity ± SD, Dihydrocostunolide (20) [2, 7]: 87 ± 11%
Reduction of the amount of measurable enzymatic products of germacrene acid ((+)-costunolide synthase; inhibitor 1 mM): 78%
Percentage Enzyme Activity ± SD, Leucodin (22) (leucodin biosynthesis; [7]): 70 ± 16%

(−)-(α)-gurjunene
Conversion by the (+)-germacrene A hydroxylase containing microsomal pellet (in words) [3]: not converted

C=C1CC[C@H]2C(=C)CC[C@H]3C(=C)C(=O)O[C@@H]3[C@@H]12 [dehydrocostus lactone]
Reduction of the C11–C13 exocyclic double bond (in words) [2]: not capable of doing the same
Reduction of the C11–C13 exocyclic double bond (in words) ([2]; listed as dehydrocostuslacton): not reduced

C=C(C)[C@H]1C/C=C(\C)CC/C=C(\C)CC1 [(+)-germacrene A]
Subsequent oxidations into germacrene aldehyde and acid, share of the produced germacrene alcohol ([3]; microsomal pellet, pH 7.5, NADPH-regenerating system): approx. 15%

Clc1ccc(COC(Cn2ccnc2)c2ccc(Cl)cc2Cl)c(Cl)c1 (stereo not shown) [miconazole]
Percentage Enzyme Activity ± SD, Dihydrocostunolide (20) [2, 5]: 100 ± 5%
Reduction of the amount of measurable enzymatic products of germacrene acid ((+)-costunolide synthase; inhibitor 100 μM): 71%
Percentage Enzyme Activity ± SD, Leucodin (22) (leucodin biosynthesis; [5]): 0 ± 0%

CC(C)=C1C/C=C(\C)CC/C=C(\C)CC1=O [germacrone]
Conversion by the (+)-germacrene A hydroxylase containing microsomal pellet (in words) [3]: not converted; also recorded: not accepted as a substrate; also recorded: not hydroxylated

CCO [ethanol]
Enzyme activity ± SD [1]: 1.87 ± 0.01

NC(=O)C1=CN([C@@H]2O[C@H](COP(=O)(O)OP(=O)(O)OC[C@H]3O[C@@H](n4cnc5c(N)ncnc54)[C@H](O)[C@@H]3O)[C@@H](O)[C@H]2O)C=CC1 [NADH]
Percentage Enzyme Activity ± SD, Dihydrocostunolide (20) [2, 8]: 14 ± 2%
Percentage Enzyme Activity ± SD, (+)-costunolide synthase ((+)-costunolide synthase): 7 ± 2%
Percentage Enzyme Activity ± SD, Leucodin (22) (leucodin biosynthesis; [8]): 0 ± 0%

CC(C)O [iso-propanol]
Enzyme activity ± SD [1]: 1.76 ± 0.16

(−)-limonene
Conversion by the (+)-germacrene A hydroxylase containing microsomal pellet (in words) [3]: Some conversion

C=C(C)[C@H]1CC=C(C)CC1 [limonene]
Conversion by the (+)-germacrene A hydroxylase containing microsomal pellet (in words) [3]: hardly converted; also recorded: did hardly occur

Nn1nnc2ccccc21 [aminobenzotriazole]
Percentage Enzyme Activity ± SD, Dihydrocostunolide (20) [2, 5]: 75 ± 8%
Reduction of the amount of measurable enzymatic products of germacrene acid ((+)-costunolide synthase; inhibitor 100 μM): 44%
Percentage Enzyme Activity ± SD, Leucodin (22) (leucodin biosynthesis; [5]): 86 ± 33%

C=C(C)[C@@H]1CCC2=C[C@@H](O)C[C@@H](C)[C@]2(C)C1 [β-nootkatol]
Conversion into nootkatone ([4]; pH 10, 1 mM NADP+ or 1 mM NAD+, 150,000 g supernatant): more than 60%
Conversion into nootkatone in the absence of cofactors ([4]; pH 10, no NAD(P)+): 25%

CC1=CC[C@@]23[C@@H]([C@@H]12)[C@H](C(C)C)CC[C@H]3C [(−)-(α)-Cubebene]
Conversion by the (+)-germacrene A hydroxylase containing microsomal pellet (in words) [3]: not converted

C=CC1(C)CCC(C(=C)C(=O)O)CC1C(=C)C (stereo not shown) [elema-1,3,11(13)-trien-12-oic acid]
Conversion of substrate analogues by the (+)-costunolide synthase (in words) ((+)-costunolide synthase): no detectable conversion; also recorded: not capable of converting

[Ar] [argon]
Percentage Enzyme Activity ± SD, Dihydrocostunolide (20) [2, 6]: 134 ± 6%
Percentage Enzyme Activity ± SD, (+)-costunolide synthase, argon atmosphere ((+)-costunolide synthase; 1 mM NADPH + argon atmosphere): 0 ± 0%
Percentage Enzyme Activity ± SD, Leucodin (22) (leucodin biosynthesis; [6]): 0 ± 0%

C=C(C)[C@@H]1CC[C@@]2(C)CCC[C@](C)(O)[C@@H]2C1 [neointermedeol]
Less efficiently hydroxylated than β-selinene [3]: 15 fold

C=C(C)C1CC=C(C)CC1 (single isomer, unassigned; (+)) [(+)-limonene]
Conversion by the (+)-germacrene A hydroxylase containing microsomal pellet (in words) [3]: Some conversion

NC(=O)C1=CN([C@@H]2O[C@H](COP(=O)(O)OP(=O)(O)OC[C@H]3O[C@@H](n4cnc5c(N)ncnc54)[C@H](OP(=O)(O)O)[C@@H]3O)[C@@H](O)[C@H]2O)C=CC1 [NADPH]
Percentage Enzyme Activity ± SD, Dihydrocostunolide (20) [2, 8]: ^a100 ± 3 ^ %
Percentage Enzyme Activity ± SD, (+)-costunolide synthase ((+)-costunolide synthase): 100 ± 8%
Percentage Enzyme Activity ± SD, Leucodin (22) (leucodin biosynthesis; [8]): ^a100 ± 10 ^ %

CCCCCC [hexane]
Enzyme activity ± SD [1]: <0.1

C[S+](C)[O-] [DMSO]
Enzyme activity ± SD [1]: 1.80 ± 0.09

cytochrome C: established cytochrome P450 inhibitor
Percentage Enzyme Activity ± SD, Dihydrocostunolide (20) [2, 7]: 105 ± 5%
Reduction of the amount of measurable enzymatic products of germacrene acid ((+)-costunolide synthase; inhibitor 100 μM): no enzymatic products of germacrene acid (4) were measured
Percentage Enzyme Activity ± SD, Leucodin (22) (leucodin biosynthesis; [7]): 0 ± 0%
